# Molecular target: 3',5'-cyclic-AMP phosphodiesterase 4D (Homo sapiens, UniProt Q08499)
# Test: Inhibition of human PDE4D catalytic domain (86 to 413 residues) expressed in Escherichia coli BL21 (DE3) cells using [3H]cAMP as substrate measured after 30 mins by scintillation proximity assay
# Sequence of 3',5'-cyclic-AMP phosphodiesterase 4D (Q08499 whole entry, the tested form may be a part): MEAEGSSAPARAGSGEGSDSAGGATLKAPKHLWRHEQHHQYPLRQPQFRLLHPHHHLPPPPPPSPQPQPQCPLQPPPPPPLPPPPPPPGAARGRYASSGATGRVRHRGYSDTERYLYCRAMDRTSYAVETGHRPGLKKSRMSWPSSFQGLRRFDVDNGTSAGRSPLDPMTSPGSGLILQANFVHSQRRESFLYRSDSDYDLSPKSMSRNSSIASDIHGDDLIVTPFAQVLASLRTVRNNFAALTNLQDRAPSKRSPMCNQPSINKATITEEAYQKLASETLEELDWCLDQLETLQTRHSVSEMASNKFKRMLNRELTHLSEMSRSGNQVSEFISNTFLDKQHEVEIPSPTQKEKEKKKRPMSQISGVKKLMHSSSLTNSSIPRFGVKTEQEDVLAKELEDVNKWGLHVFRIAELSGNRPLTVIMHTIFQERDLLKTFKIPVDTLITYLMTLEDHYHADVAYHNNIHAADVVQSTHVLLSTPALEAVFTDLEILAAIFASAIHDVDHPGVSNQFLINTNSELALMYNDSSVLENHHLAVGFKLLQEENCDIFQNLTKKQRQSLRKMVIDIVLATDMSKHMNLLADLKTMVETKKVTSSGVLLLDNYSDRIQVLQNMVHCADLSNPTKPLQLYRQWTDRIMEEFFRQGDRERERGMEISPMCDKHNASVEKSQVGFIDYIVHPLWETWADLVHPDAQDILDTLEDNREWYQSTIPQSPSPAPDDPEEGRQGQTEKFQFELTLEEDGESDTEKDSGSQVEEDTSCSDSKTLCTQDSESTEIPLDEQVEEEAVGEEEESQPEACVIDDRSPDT
row,IC50,SMILES
1,2.8 µM,CC(C)C1=CC[C@H]2C(=CC[C@@H]3[C@]2(C)CCC[C@@]3(C)C(=O)O)C1=O
2,3.3 µM,C=C(C)c1ccc2c(c1)CC[C@H]1[C@](C)(C(=O)O)CCC[C@]21C
